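Method: 48-hour compound exposure of cells in 96-well plates, five concentrations, linear interpolation of endpoints. Here, GI50 denotes the concentration required for 50% inhibition of growth. TGI marks complete inhibition of growth.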
How the values were obtained:
Assay in all cases: NCI-60 cell line screen, 48 h
OVCAR-5 ovarian = tested on: OVCAR-5 ovarian
HCT-116 colon = tested on: HCT-116 colon
SK-MEL-2 melanoma = tested on: SK-MEL-2 melanoma
HT29 colon = tested on: HT29 colon
MALME-3M melanoma = tested on: MALME-3M melanoma
MDA-N = tested on: MDA-N
TK-10 renal = tested on: TK-10 renal
SK-MEL-5 melanoma = tested on: SK-MEL-5 melanoma
MCF7 breast = tested on: MCF7 breast
OVCAR-3 ovarian = tested on: OVCAR-3 ovarian
T-47D breast = tested on: T-47D breast
CAKI-1 renal = tested on: CAKI-1 renal
SN12C renal = tested on: SN12C renal
LOX IMVI melanoma = tested on: LOX IMVI melanoma
PC-3 prostate = tested on: PC-3 prostate
BT-549 breast = tested on: BT-549 breast

SMILES | TGI (OVCAR-5 ovarian) | TGI (HCT-116 colon) | TGI (SK-MEL-2 melanoma) | TGI (HT29 colon) | TGI (MALME-3M melanoma) | TGI (MDA-N) | TGI (TK-10 renal) | TGI (SK-MEL-5 melanoma) | TGI (MCF7 breast) | TGI (OVCAR-3 ovarian) | TGI (T-47D breast) | TGI (CAKI-1 renal) | TGI (SN12C renal) | TGI (LOX IMVI melanoma) | TGI (PC-3 prostate) | TGI (BT-549 breast) | GI50 (HCT-116 colon) | GI50 (OVCAR-3 ovarian) | GI50 (SN12C renal)
COc1ccc(CCc2ccc(O)c(C(=O)O)c2)cc1OC | > 100 µM | > 100 µM | > 100 µM | > 100 µM | > 100 µM | > 100 µM | > 100 µM | > 100 µM | > 100 µM | > 100 µM | > 100 µM | > 100 µM | > 100 µM | > 100 µM | > 100 µM | – | – | – | –
O=C(NCCCCNCCCNC(=O)c1cc(-c2ccccc2)nc2ccccc12)c1cc(-c2ccccc2)nc2ccccc12 | – | 3.2 µM | 3.49 µM | 3.1 µM | 3.23 µM | 3.23 µM | 2.93 µM | 2.75 µM | 3.07 µM | 2.99 µM | – | 3.82 µM | 3.38 µM | – | 2.98 µM | 37.5 µM | – | – | –
COc1ccc(Nc2nc(N)c(C(=O)c3ccccc3)s2)cc1 | > 78.4 µM | 3.38 µM | 32.2 µM | 15.4 µM | > 100 µM | – | > 100 µM | 4.01 µM | > 100 µM | > 100 µM | > 100 µM | 33.3 µM | 66.3 µM | > 100 µM | > 62.4 µM | > 84.5 µM | – | – | –
COc1ccc(C2SCC(=O)N2NC(=O)C(C)Oc2ccccc2Cl)cc1 (stereo not drawn) | > 100 µM | > 100 µM | 50 µM | > 100 µM | – | – | > 100 µM | 65.6 µM | > 100 µM | – | > 100 µM | > 100 µM | > 100 µM | 62 µM | > 100 µM | > 100 µM | – | – | –
Cc1ccc(Nc2nc(=O)[nH]c(=O)[nH]2)cc1N=[N+]=[N-] | > 100 µM | > 100 µM | > 100 µM | > 100 µM | > 100 µM | > 100 µM | > 100 µM | > 100 µM | > 100 µM | > 100 µM | > 100 µM | > 100 µM | > 100 µM | > 100 µM | – | > 100 µM | – | – | –
O=C1CCCCC[C@]12SC[C@H]1CON=C12 | > 100 µM | > 100 µM | – | > 100 µM | > 100 µM | 32.5 µM | > 100 µM | > 100 µM | 82.4 µM | > 100 µM | – | 58 µM | 57.6 µM | > 100 µM | – | > 100 µM | – | – | –
C=Cc1cc2c(cc1O)CC[C@@H]1[C@@H]2CC[C@]2(C)[C@@H](O)CC[C@@H]12 | 41.3 µM | 12.1 µM | 21.1 µM | 29.5 µM | 10.4 µM | 7.76 µM | 38.3 µM | 15.7 µM | – | 8.74 µM | 36.2 µM | 20.8 µM | 19.5 µM | 25.1 µM | 36.5 µM | – | 2.57 µM | 2.57 µM | 5.12 µM
O=C(CCc1ccccc1CO)NCCc1ccccc1 | > 100 µM | > 100 µM | > 100 µM | > 100 µM | – | – | > 100 µM | > 100 µM | > 100 µM | > 100 µM | > 100 µM | > 100 µM | > 100 µM | – | > 100 µM | > 100 µM | – | – | –
CCn1c(-c2ccc(C)cc2)cs/c1=N\C(P(=O)(O)O)P(=O)(O)O | > 100 µM | > 100 µM | – | > 100 µM | > 100 µM | > 100 µM | > 100 µM | > 100 µM | > 100 µM | > 100 µM | – | > 100 µM | – | > 100 µM | > 100 µM | > 100 µM | – | – | –
CC(C)CC1[C@@H](OCc2ccccc2)COS(=O)(=O)N1Cc1ccccc1 (stereo partly drawn) | > 100 µM | > 100 µM | > 100 µM | > 100 µM | > 100 µM | – | > 100 µM | > 100 µM | > 100 µM | > 100 µM | > 100 µM | > 100 µM | > 100 µM | > 100 µM | > 100 µM | > 100 µM | – | – | –
O=CC1OC(=O)c2cc(O)c(O)c(O)c2-c2c(cc(O)c(O)c2O)C(=O)OC1C(O)C(O)CO (stereo not drawn) | > 100 µM | 81.1 µM | > 100 µM | 46.8 µM | > 100 µM | 36.2 µM | > 100 µM | > 100 µM | 39.4 µM | > 100 µM | – | 35.9 µM | > 100 µM | 31.4 µM | 31.9 µM | > 100 µM | – | – | –
Nc1nc(N)c2nnn(C[C@H]3CC[C@@H](CO)C3)c2n1 | > 100 µM | > 100 µM | – | > 100 µM | > 100 µM | > 100 µM | > 100 µM | – | > 100 µM | > 100 µM | – | > 100 µM | 93.3 µM | > 100 µM | > 100 µM | > 100 µM | – | – | –
CSc1nc(O)c(/C=C2\C=Nc3ccccc32)[nH]1 | > 100 µM | > 100 µM | > 100 µM | > 100 µM | > 100 µM | – | > 100 µM | > 100 µM | > 100 µM | > 100 µM | > 100 µM | – | > 100 µM | > 100 µM | > 100 µM | > 100 µM | – | – | –
Cc1cc(O)c(/C=N/c2nc(-c3cccc([N+](=O)[O-])c3)cs2)c(=O)o1 | > 100 µM | > 100 µM | > 100 µM | > 100 µM | – | – | 26.6 µM | > 100 µM | > 100 µM | > 100 µM | > 100 µM | > 100 µM | > 100 µM | > 100 µM | > 100 µM | 73.5 µM | – | – | –
CCOC(=O)COc1c(OC)cc(C2C3=C(COC3=O)Oc3cc4c(cc32)OCO4)cc1OC (stereo not drawn) | > 100 µM | > 100 µM | > 100 µM | 8.29 µM | > 100 µM | – | 20.9 µM | 13.8 µM | > 100 µM | 78.4 µM | 17.7 µM | 38.1 µM | > 73 µM | > 100 µM | > 100 µM | 98.1 µM | – | – | –
S=C(c1c[nH]c2ccccc12)N1CCN(c2ccccc2)CC1 | > 100 µM | > 100 µM | > 100 µM | > 100 µM | 87.4 µM | > 100 µM | > 100 µM | > 100 µM | > 100 µM | > 100 µM | – | > 100 µM | 59.9 µM | > 100 µM | > 100 µM | > 100 µM | – | – | –

Reference: PubChem BioAssay (NCI)
